Reference: patent US20040018528A1, “Novel biomarkers of tyrosine kinase inhibitor exposure and activity in mammals” (Sugen, Inc., priority 2002, published 2004)
“And” between values parts separate entries of the source, which are not always exact repeats. Identical values can stand only once. “Also recorded” adds a separate entry of the source.

What was measured:
HUVECs = assay: 2D gel analysis of conditioned media of VEGF-stimulated HUVECs; format: cell-based, human; details: HUVEC conditioned media; VEGF and compound 1 (1 uM) at 24 h; Run #1, Run #2
Method: Thawed conditioned media samples were precipitated with three volumes of acetone for 2 hours at −20° C., then centrifuged at 13000 RPM for 15 minutes. […] Protein was quantitated with Bio-Rad Protein Assay (cat#500-0006) using the microassay for cuvettes protocol.
Samples were diluted to 0.3 μg/μl with IEF Buffer containing 1% IPG Buffer pH 3-10 (Amersham). Eighteen centimeter IPG strips pH 3-10 (Amersham) were rehydrated with 120 μg sample (400 μL) under Drystrip Cover Fluid (Amersham) on the IPGphor (Amersham) at 20° C. for 18 hours. Strips were focused with the following program: 200 volts for 1 hour, ramped from 200 volts to 1000 volts over two hours, held at 1000 volts for 1 hour, ramped from 1000 volts to 8000 volts over 6 hours, then held at 8000 volts for 10 hours. […] Gels were over-layed with water-saturated butanol (Fisher), and left to polymerize at room temperature overnight.
Focused strips were equilibrated for ten minutes with gentle shaking in 10 milliliters Equilibration Buffer: 6 M Urea (Fisher), 50 mM tris-HCl pH 8.8 (Fisher), 30% glycerol (Fisher), 2% SDS (Fisher) with 1% dithiothreitol followed by ten minutes in Equilibration Buffer with 4% iodoacetamide.
The equilibrated strips were loaded onto the gel surfaces and sealed with hot agarose overlay solution containing 0.5% agarose in 50 mM tris-HCl pH 6.8, 2% SDS. […]

[1] = test system: OB-cadherin 1 (cadherin 11); assay: Immunohistochemistry of OB-cadherin 1 in Colo205 xenograft tumors; format: in vivo, mice; details: 24 or 48 hours exposure, vs vehicle treated, IHC
Description: Colo205 human colon xenograft tumors were isolated and fixed in Streck Tissue Fixative (Streck Laboratories, Inc., La Vista, […].). Samples used in immunohistochemistry were sent out to BioPathology Sciences Medical Corporation (South San Francisco, Calif.) for paraffin embedding and sectioning.
A rabbit polyclonal antibody recognizing the cytoplasmic tail region of OB-cadherin 1 (cadherin 11) was purchased from Zymed Laboratories, Inc. (Zymed reagent #71-7600; South San Francisco, Calif.).
Sections (4-5 μm) stained using an automated immunohistochemistry system (Benchmark System, Ventana Medical Systems, Inc., Tucson, Ariz.). In brief, slides were deparaffinized using heat at 75° C. and Ventana's EZ Prep product (Ventana reagent #950-102). Antigen retrieval was performed by incubating the slides for 30 min with Ventana's CC2 product (Ventana reagent #950-123), a citrate-based solution with pH 6.0. Primary antibody (5 μg/ml) was incubated for 24 min at room temperature, followed by a secondary detection system, using biotinylated secondary antibody (Vector anti-rabbit secondary, BA-1000, at 2.5 μg/ml; Vector Laboratories, Burlingame, Calif.) with incubation time of 8 min. […] All samples analyzed for OB-cadherin 1 expression were also stained with the omission of primary antibody as a negative control.

IL-6 = IL-6 plasma ELISA; format: in vivo, human; details: patients, FIG. 26
Method: (§1) Reagents for FLT3 ligand (FL) and IL-6 ELISA kits were obtained from R&D Systems, Inc. (Minneapolis, Minn.; catalog #s DFK00, Q6000). C-reactive protein (CRP) (accession ID AAA 52075) ELISA kits were obtained from KMI Diagnostics (Minneapolis, Minn.; catalog #EU59131). ELISAs were performed on patient plasma according to the manufacturers' instructions. The FL and CRP kits relied on a colorimetric readout; the optical density of each well was determined using a microplate spectrophotometer and data was analyzed using KC-4 software from Bio-Tek Instruments, Inc. The IL-6 kit was a chemiluminescent sandwich ELISA; luminescence values were determined on a microplate luminometer. SOFTmaxPRO software was used to extrapolate cytokine concentrations from the standard curves.

HUVEC = assay: pro-MMP1 ELISA of HUVEC conditioned media; format: cell-based, human; details: for Average pro-MMP1: HUVEC conditioned media
Method: Cells were propagated at 37° C. in a humidifed atmosphere of 5% CO2 using standard cell culture techniques. Cells were plated in 10-cm tissue culture plates at 8.5×10^5 cells/ml. After 6 hours the cells were quiesced by serum starvation overnight in starvation medium (EBM containing 0.5% FBS). […] Conditioned media was stored at −70° C. until subsequent analysis.
Reagents for human pro-Matrix Metalloproteinase 1 (pro-MMP-1) ELISA kits were obtained from R&D Systems, Inc. (Minneapolis, Minn.; catalog #DMP100). ELISAs were performed on conditioned media samples according to the manufacturers' instructions. The optical density of each well was determined using a universal microplate spectrophotometer (μQuant) from Bio-Tek Instruments, Inc. (Winooski, Vt.). KC-4 software from Bio-Tek Instruments, Inc. was used to extrapolate cytokine concentrations from the standard curves.

FLT3 ligand (FL) = assay: FLT3 ligand plasma ELISA; format: in vivo, human
Method: as §1, with “C-reactive protein (CRP) (accession ID AAA 52075) ELISA kits were obtained from KMI Diagnostics (Minneapolis, Minn.; catalog #EU59131).” left out

VEGF/PLGF heterodimers = assay: Hybrid ELISA for VEGF/PLGF heterodimers in patient plasma; format: in vivo, human; details: Trial C
Description: Heterodimers of VEGF and PLGF have been reported in the scientific literature. To measure heterodimers, a hybrid ELISA assay was used, combining reagents from both the R&D Systems VEGF and PLGF ELISA kits (where VEGF antibodies are used in capture step and PLGF antibodies are used in detection step).

IP-10 = IP-10 plasma ELISA, Compound 1 Phase I trials; format: in vivo, human
Method: (§2) In Trials A and B, patients received Compound 1.
(§3) Data analysis was performed for each marker.

MIG = MIG plasma ELISA, Compound 1 Phase I trials; format: in vivo, human; details: individual patients; in pg/mL (unit assumed)
Method: as §2, §3

I-TAC = I-TAC plasma ELISA, Compound 1 Phase I trials; format: in vivo, human
Method: as §2, §3

C-reactive protein (CRP) = assay: C-reactive protein plasma ELISA; format: in vivo, human; details: patients, FIG. 27
Method: as §1

pro-MMP1 = pro-MMP1 levels in plasma of Study B patients; format: in vivo, human; details: Study B patients after receiving compound
42 human cytokines = assay: Antibody membrane array (RayBio Human Cytokine Array III) screen of patient plasma; format: in vivo; details: plasma of one Trial B patient, confirmed by MIG ELISA
Method: All of the ELISA-based screening of candidate proteins were performed with commercially available ELISA kits; the kits for the biomarkers described in this report are all available from R&D Systems (Minneapolis, Minn.). A commercially available membrane array containing antibodies for the detection of 42 human cytokines was also used in screening of a patient's plasma samples before and after treatment. The antibody array used in cytokine screening (RayBio Human Cytokine Array III) was from RayBiotech (Norcross, Ga.).

[2] = patients checked for both proteins

Structure (SMILES): CCN(CC)CCNC(=O)c1c(C)[nH]c(C=C2C(=O)Nc3ccc(F)cc32)c1C [Compound 1, 5-(5-Fluoro-2-oxo-1,2-dihydro-indol-3-ylidenemethyl)-2,4-dimethyl-1H-pyrrole-3-carboxylic acid (2-diethylamino-ethyl)-amide]
- Spot #1202 (pro-MMP-1) quantification, 2D gel (HUVECs): 270 and 484.7
- protein expression of OB-cadherin 1 (cadherin 11) [1]: up-regulated; also recorded: up-regulation
- interleukin-6 (IL-6) plasma level during treatment (IL-6): induced
- Average pro-MMP1 (HUVEC; 10 nM pre-treatment, 10 min post-VEGF): 5.41 ng/mL
- Average pro-MMP1 (HUVEC; 10 nM pre-treatment, 8 hr post-VEGF): 14.93 ng/mL
- Average pro-MMP1 (HUVEC; 10 nM pre-treatment, 24 hr post-VEGF): 70.21 ng/mL
- Average pro-MMP1 (HUVEC; 10 nM pre-treatment, 48 hr post-VEGF): 135.35 ng/mL
- Average pro-MMP1 (HUVEC; 100 nM pre-treatment, 10 min post-VEGF): 5.78 ng/mL
- Average pro-MMP1 (HUVEC; 100 nM pre-treatment, 8 hr post-VEGF): 12.75 ng/mL
- Average pro-MMP1 (HUVEC; 100 nM pre-treatment, 24 hr post-VEGF): 50.26 ng/mL
- Average pro-MMP1 (HUVEC; 100 nM pre-treatment, 48 hr post-VEGF): 128.75 ng/mL
- Average pro-MMP1 (HUVEC; 1 uM pre-treatment, 10 min post-VEGF): 5.04 ng/mL
- Average pro-MMP1 (HUVEC; 1 uM pre-treatment, 8 hr post-VEGF): 14.48 ng/mL
- Average pro-MMP1 (HUVEC; 1 uM pre-treatment, 24 hr post-VEGF): 50.42 ng/mL
- Average pro-MMP1 (HUVEC; 1 uM pre-treatment, 48 hr post-VEGF): 103.09 ng/mL
- levels of pro-MMP1 in HUVEC conditioned media (HUVEC; VEGF-treated HUVEC, pre-incubation at 10 nM, 100 nM or 1 uM): decreased
- patients exhibiting an increase in FLT3 ligand (FL) concentration (FLT3 ligand (FL); 18 patients enrolled in Trial B, day 1 to day 28): 100%
- FLT3 ligand (FL) plasma level during treatment (FLT3 ligand (FL); expanded set of patients, FIG. 25): induced; also recorded: Dramatic induction
- patients tested with increase in plasma levels of VEGF/PLGF heterodimer (VEGF/PLGF heterodimers): 3 of 3
- IP-10 plasma level, end C1 dosing (IP-10; individual patients, >500 = above highest standard): >500
- patients with MIG and IP-10 induced in tandem (IP-10; [2]): 6 of 6
- MIG plasma level, end C1 dosing (MIG): 138.56 and 739.71
- I-TAC plasma level, end C1 dosing (I-TAC; individual patients, in pg/mL (unit assumed)): >4000.0 and 212.26
- patients with MIG and I-TAC induced in tandem (I-TAC; [2]): 5 of 5
- C-reactive protein (CRP) plasma level during treatment (C-reactive protein (CRP)): induced
- pro-MMP1 levels in plasma of patients (pro-MMP1): increased
- level of MIG after treatment vs baseline (42 human cytokines): significantly higher
